Consider 5 molecules from patent US7148243B2, “Antivirals” (Medivir AB, priority 1998, dated 2006).

Several values for one entry are separate records, joined by “and”; a condition that tells them apart may be missing. Equal entries are not always repeated. Where two headings read alike, the source gives them in different places.

The test system of data set [1] is HIV. As to conditions: after only four weeks of therapy, virus isolated from patient serum; cited from earlier work.
A short description of data set [2]: Release of mother compound from orally administered prodrug, plasma level (Biological Example 4). The format is in vivo, Sprague Dawley rats. As to conditions: oral Example 7 0.027 mmol/kg in propylene glycol, released Example 6 assayed. The procedure:
The release of a compound of Formula I from an orally administered prodrug of Formula II was monitored in rats. The compound of Example 7 was made up in a propylene glycol vehicle and orally administered to paired fasted male Sprague Dawley rats at a dose corresponding to 0.027 mmol/kg. At the indicated time intervals, 0.2 ml blood was collected from a catheter implanted in the […] jugularis, centrifuged and frozen for later analysis. The released drug of Formula I (Example 6) was assayed by HPLC.

Data set [3] can be described thus: Bioavailability in different species, plasma level of mother compound (Biological Example 7). The format is in vivo, cynomolgus monkeys. As to conditions: monkey, Example 12 0.026 mmol/kg, acacia/Tween. As for the experimental part:
Monkeys were fasted for 12 hours prior to oral administration but had free access to water. The test compound was delivered via an infant nasogastric feeding tube. After 6 hours the monkeys received an apple.
(§1) A prodrug of the invention of Formula II (Example 12) was administered at the same dose (0.026 mmol/kg) and in the same vehicle (10% acacia and 1% Tween in water) to rats and cynomolgus monkeys. Plasma levels of the mother compound of Formula I (Example 10) was measured as a function of time.

Experiment in data set [4]: as above
Format: in vivo. The settings on record: rat, Example 12 0.026 mmol/kg, acacia/Tween. The procedure: Each substance was administered to duplicate rats.
as §1
The corresponding data for the compound of Example 28 (rat: acacia/Tween, monkey:propylene glycol) are shown in Table 5A: […]

Data set [5] has as its target T1, HIV reverse transcriptase (Human immunodeficiency virus type 1 group M subtype B, UniProt P04585).
T1 construct: made in house
The data set can be described thus: Binding kinetics by surface plasmon resonance (Biological Example 10). As to conditions: dissociation phase, 25° C., FIG. 3, versus prior art Santa Fe compound. An excerpt:
The rate of association and dissociation of an NNRTI on the target enzyme can be directly assayed by surface plasmon resonance methodology, wherein reverse transcriptase is immobilized on the surface of a chip and the binding or dissociation of the putative inhibitor is monitored by observing the changes in refractive index caused by the concomitant increase or decrease in chip mass. A compound of the invention (Example 8) was compared to the closest prior art compound from Santa Fe, as depicted above. Experiments were performed on a BIACORE® 2000 (Biacore AB, Uppsala, Sweden), using BIAEVALUATION® software (ver 3.0) for evaluation of data. The binding of the small analyte (NNRTI) to the much larger enzyme results in binding responses in the range of 10–20 RU. […] During the dissociation phase there is insignificant change in bulk refractive index, thus the binding of the different substances have been evaluated during this phase. […]
Interaction with inhibitors: Stock solutions of inhibitors (1 mg/ml in DMSO) were dissolved in RT running buffer (10 mM Hepes pH 7.6; 4 mM MgCl2; 0.25 mM spermine; 40 mM KCl; 0.5% TRITON® X-100; 3% DMSO; 0.5% fetal calf serum) to a concentration of […]. Binding of substance to the RT was analysed by injection of […] of the diluted substance, the flow rate was […] and the temperature 25° C. […]
In general terms: In SPR one partner is held on a chip, and binding of the other changes the refractive index at the surface.

Data set [6] has as its system HIV-1 IIIB. The data set can be described thus: Time to resistance, weekly passage in MT4 cells (Biological Example 2). The format is cell-based. As to conditions: growth of viral resistance against time, FIG. 1, versus closest Santa Fe compound. The procedure: 2×10^4 MT4 cells per well in a microtitre plate are infected with 5–10 TCID50 of HIV-1 IIIB. The compounds being tested are added at concentrations around ED50 using 8 duplicates per concentration. After 6 days of incubation the RT activity in 10 μl supernatent is measured.
The following procedure is followed at subsequent passages of the cultures once per week.: Virus produced at the concentration of test compound showing >50% of the RT activity of untreated infected cells (SIC, Starting Inhibitory Concentration) are passaged to fresh MT4 cells. 15 μl supernatent from each of the eight duplicates are transferred to cells without the test compound (control) and to cells with test compound at the same concentration, and additionally two respectively fivefold higher concentrations. (See Table 2 below)
When viral growth is permitted at the highest non-toxic concentration (5–40 μM), 2–4 parallel wells are collected and expanded to give material for sequence analysis and cross-wise resistance.
FIG. 1 plots the growth of viral resistance for a compound of the invention (Example 8) against time. Also plotted is the corresponding curve for the closest Santa Fe compound, mentioned above.

For data set [7] the following is noted: for plasma level of mother compound: 0.027 mmol/kg.
Protocol: The rats used in pharmacokinetic examples were male Sprague-Dawley, with a weight about 200–250 g. The rats were fasted for at least 16 hours before the experiment, but had free access to water. The day before the experiment the rats were anaesthetized using a mixture of Efrane®, laughing gas and oxygen. A catheter was introduced into the vena jugularis. On the day of the experiment the weights of the rats were noted. The animals were shortly anaesthesized before the oral dose was given or the iv dose injected into the back of the neck. Each substance was administered to duplicate rats.
Compounds were dissolved in DMSO for intravenous administration.
The blood samples were centrifuged infectious agents neutralised with 1% SDS/64°/20 min and plasma stored at −20° C.
Plasma samples are prepared as follows: 40–100 μl of plasma is mixed with an equal volume of acetonitrile (10 seconds, Vibrofex). The sample is centrifuged (2 min, 14000 RPM) and 30 μl of the supernantant is injected into an HPLC system, as follows.
The vehicle was 10% acacia and 1% Tween in water or propylene glycol (asterisked).

Turning to `Cc1ccnc2c1NC(=O)c1cccnc1N2C1CC1` [nevirapine], the “loss of sensitivity of patient virus to the drug versus virus from untreated patients” value in data set [1] is 100 fold.
As to `CCC(=O)c1ccc(F)c([C@H]2C[C@H]2NC(=O)Nc2ccc(C#N)cn2)c1OC(=O)c1cccc(N)c1` (relative stereo) [Example 7, (1R, 2R)-N-[cis-2-(2-(3-aminophenylcarbonyloxy)-6-fluoro-3-propionylphenyl)-cyclopropyl]-N′-(5-cyanopyrid-2-yl)-urea], the “plasma level of mother compound” value in data set [2] (30 min, individual rats) was 240 ng/mL and 350 ng/mL; in data set [2] (60 min), 180 ng/mL and 280 ng/mL; in data set [2] (120 min), 130 ng/mL and 170 ng/mL; in data set [2] (240 min), 70 ng/mL and 120 ng/mL; in data set [2] (360 min), 50 ng/mL and 70 ng/mL.
With `CCC(=O)c1ccc(F)c([C@@H]2C[C@@H]2NC(=O)Nc2ccc(Br)cn2)c1OC(=O)c1cccc(N)c1` (relative stereo) [Example 12, (1S, 2S)-N-[cis-2-(2-(3-aminophenylcarbonyloxy)-6-fluoro-3-propionylphenyl)cyclopropyl]-N′-(5-bromopyrid-2-yl)-urea], the “plasma level of mother compound” value in data set [3] (45 min, mother compound Example 10) is 80 ng/mL and 40 ng/mL; in data set [3] (90 min), 200 ng/mL and 260 ng/mL; in data set [3] (180 min), 1000 ng/mL and 550 ng/mL; in data set [3] (240 min), 720 ng/mL and 540 ng/mL; in data set [3] (360 min) it was 380 ng/mL and 390 ng/mL; in data set [3] (600 min), 130 ng/mL and 100 ng/mL. The “plasma level of mother compound” value in data set [3] (24 h) was 30 ng/mL; in data set [4] (30 min, mother compound Example 10), 90 ng/mL and 50 ng/mL; in data set [4] (60 min), 100 ng/mL and 70 ng/mL; in data set [4] (120 min), 90 ng/mL and 80 ng/mL; in data set [4] (180 min), 80 ng/mL; in data set [4] (240 min), 60 ng/mL and 50 ng/mL.
As for `CCC(=O)c1ccc(F)c([C@@H]2C[C@@H]2NC(=O)Nc2ccc(C#N)cn2)c1O` (stereo in doubt) [Example 8, (1 S,2S)-N-(cis-2-(6-fluoro-2-hydroxy-3-propionoylphenyl)-cyclopropyl)-N′-(5-cyanopyrid-2-yl)-urea], in data set [5], the “dissociation rate from reverse transcriptase” value was “dissociating with the lowest rate”. The “rate of resistance development” value in data set [6] was “significantly slower rate of resistance development”.
In the case of `CCC(=O)c1ccc(F)c([C@@H]2C[C@@H]2NC(=O)Nc2ccc(C#N)cn2)c1OCOC(=O)c1ccc(O)cc1` (relative stereo) [Example 37, (1S, 2S)-N-[cis-2-(6-fluoro-2-O-3-propionylphenyl)-cyclopropyl]-N′-[2-(5-cyanopyridyl)]urea-O-methylene-4-hydroxybenzoate], the “plasma level of mother compound” value in data set [7] (propylene glycol (asterisked), 30 min) was 234 ng/mL and 137 ng/mL; in data set [7] (propylene glycol, 60 min), 273 ng/mL and 189 ng/mL; in data set [7] (propylene glycol, 120 min) it was 111 ng/mL and 133 ng/mL; in data set [7] (propylene glycol, 240 min), 56 ng/mL and 45 ng/mL; in data set [7] (propylene glycol, 360 min) it was 54 ng/mL and 56 ng/mL. Further, the absolute oral bioavailability in data set [7] (determined relative to the iv dose, rats) is given as 28–33%.
